Test results: patent US20020015729A1, “COLONIC DELIVERY OF WEAK ACID DRUGS” (priority 1996, published 2002)

Assays:
[1] = Solubility of the drug in the colonic pH range; format: physicochemical; conditions: pH 4.5 to 8.0
[2] = Dissolution of ridogrel and sodium ridogrel from hard gelatin capsules, USP apparatus 2, 100 rpm, 900 mL phosphate buffer; format: physicochemical; conditions: 10 mg in size 2 hard gelatin capsule, pH 5, 6 and 7
Protocol: Into each of three size 2 hard gelatin capsules was weighed 10 mg of ridogrel. Into another three capsules was weighed 10 mg of the sodium ridogrel lyophilisate. The dissolution of ridogrel and sodium ridogrel into 900 mL of phosphate buffer at pH 5, 6 and 7 was tested (USP apparatus 2, 100 rpm).

Row | SMILES | solubility in the colonic pH range [1] | dissolution rate as a function of pH [2] | dissolution rate as a function of pH ([2]; listed as sodium salt of ridogrel)
1 | O=C(O)CCCCO/N=C(/c1cccnc1)c1cccc(C(F)(F)F)c1 [ridogrel, (E)-5-[[[3-pyridinyl[3-(trifluoromethyl)phenyl]methylene]amino]oxy]pentanoic acid] | low |  | 
2 | O=C([O-])CCCCON=C(c1cccnc1)c1cccc(C(F)(F)F)c1.[Na+] [sodium ridogrel] |  | largely independent of pH | greatly improved dissolution rate
